# Data published in US20110190365A1, “Insecticidal 4-phenyl-1H-pyrazoles” (Bayer Crop Science AG, priority 2008, published 2011).
# Experiment: log P by HPLC on a reversed-phase column (C18), EEC Directive 79/831 Annex V.A8
# Format: physicochemical
# Conditions: HCOOH
# Experimental: The stated log P values were determined in accordance with EEC Directive 79/831 Annex V.A8 by HPLC (High Performance Liquid Chromatography) using a reversed-phase column (C18).
row,SMILES,log P (HCOOH)
1,Cc1cc(-n2nc(C(F)(F)F)c(-c3cc(Cl)cc(Cl)c3)c2N)ccc1C(=O)NCc1cc(F)cc(F)c1 [I-A-Q2-040],I-A-Q2-040: log P (HCOOH): 4.57
2,Cc1cc(-n2nc(C(F)(F)c3cccc(Br)c3)c(-c3cc(Cl)cc(C(F)(F)F)c3)c2N)ccc1C(=O)NCC(F)(F)C(F)F [I-A-Q2-285],I-A-Q2-285: log P (HCOOH): 4.95
3,Nc1c(-c2ccc(Cl)c(Cl)c2)c(C(F)(F)F)nn1-c1ccc(C(=O)NCC(F)F)cc1 [I-A-Q2-159],I-A-Q2-159: log P (HCOOH): 3.65
4,Nc1c(-c2cccc(Cl)c2)c(C(F)(F)F)nn1-c1ccc(C(=O)NC2CC2)cc1 [I-A-Q2-091],I-A-Q2-091: log P (HCOOH): 3.09
5,CNC(=O)c1ccc(-n2nc(C(F)(F)F)c(-c3cc(Cl)cc(Cl)c3)c2Br)nc1 [I-A-Q2-109],I-A-Q2-109: log P (HCOOH): 4.35
6,Cc1cc(-n2nc(C)c(-c3ccc(F)cc3F)c2N)ccc1C(=O)NCc1ccccn1 [I-A-Q2-370],I-A-Q2-370: log P (HCOOH): 1.64
7,CNC(=O)c1ccc(-n2nc(-c3ccccc3)c(-c3ccc(Cl)cc3)c2N)cc1 [I-A-Q2-078],I-A-Q2-078: log P (HCOOH): 2.94
8,CCOC(=O)c1ccc(-n2nc(C(F)(F)F)c(Br)c2N)cc1 [XI-A-018],XI-A-018: log P (HCOOH): 3.60
9,Cc1cc(-n2nc(C(F)(F)F)c(-c3cc(Cl)cc(Cl)c3)c2N)ccc1C(=O)N(Cc1ccccn1)Cc1ccccn1 [I-A-Q2-199],I-A-Q2-199: log P (HCOOH): 3.48
10,Cc1cc(-n2nc(C(F)(F)F)c(-c3cc(Cl)cc(Cl)c3)c2N)ccc1C(=O)NCC(F)(F)C(F)(F)C(F)(F)C(F)(F)C(F)(F)C(F)(F)C(F)(F)F [I-A-Q2-267],I-A-Q2-267: log P (HCOOH): 6.14
11,CC(NC(=O)c1ccc(-n2nc(C(F)(F)F)c(-c3ccccc3Cl)c2N)cc1)c1ccccc1 (stereo not shown) [I-A-Q2-081],I-A-Q2-081: log P (HCOOH): 3.58
12,Nc1c(-c2ccc(Cl)c(Cl)c2)c(C(F)(F)F)nn1-c1ccc(C(=O)NC2CC2)cc1 [I-A-Q2-157],I-A-Q2-157: log P (HCOOH): 3.51
13,Cc1cc(-n2nc(C(F)(F)F)c(-c3ccccc3Br)c2N)ccc1C(=O)NCC(F)(F)C(F)F [I-A-Q2-423],I-A-Q2-423: log P (HCOOH): 3.55
14,Cc1cnc(CNC(=O)c2ccc(-n3nc(C(F)(F)F)c(-c4cc(Cl)cc(Cl)c4)c3N)cc2C)c(C)c1 [I-A-Q2-038],I-A-Q2-038: log P (HCOOH): 3.11
15,COC(=O)c1ccc(-n2nc(C(F)(F)F)c(Br)c2N)cc1C [XI-A-082],XI-A-082: log P (HCOOH): 3.52
16,Cc1cc(-n2nc(C(F)(F)F)c(-c3cc(Cl)cc(Cl)c3)c2N)ccc1C(=O)NC1CC1 [I-A-Q2-228],I-A-Q2-228: log P (HCOOH): 3.78
17,Cc1cc(-n2nc(C(F)(F)F)c(-c3cc(Cl)cc(Cl)c3)c2N)ccc1C(=O)NCc1cccnc1 [I-A-Q2-216],I-A-Q2-216: log P (HCOOH): 2.57
18,C=CCNC(=O)c1ccc(-n2nc(C(F)(F)F)c(-c3cc(Cl)cc(Cl)c3)c2N)cc1C [I-A-Q2-062],I-A-Q2-062: log P (HCOOH): 3.94
19,Cc1cc(-n2nc(C(F)(F)F)c(-c3cc(Cl)cc(Cl)c3)c2N)ccc1C(=O)NC1CCC1 [I-A-Q2-239],I-A-Q2-239: log P (HCOOH): 4.17
20,Cc1cc(-n2nc(C(F)(F)F)c(-c3ccc(Cl)cc3Cl)c2N)ccc1C(=O)NCc1ncccn1 [I-A-Q2-411],I-A-Q2-411: log P (HCOOH): 3.17
21,CCCC(NC(=O)c1ccc(-n2nc(C(F)(F)F)c(-c3cc(Cl)cc(Cl)c3)c2N)cc1)C(F)(F)F (stereo not shown) [I-A-Q2-071],I-A-Q2-071: log P (HCOOH): 4.95
22,Cc1cc(-n2nc(C(F)(F)F)c(-c3cc(Cl)cc(Cl)c3)c2N)ccc1C(=O)NCC1CC1 [I-A-Q2-220],I-A-Q2-220: log P (HCOOH): 4.11
23,CCC(C)C(NC(=O)c1ccc(-n2nc(C(F)(F)F)c(-c3cc(Cl)cc(Cl)c3)c2N)cc1)C(F)(F)F (stereo not shown) [I-A-Q2-072],I-A-Q2-072: log P (HCOOH): 5.22
24,Cc1cc(-n2nc(C(F)(F)OC(F)(F)C(F)(F)OC(F)(F)F)c(-c3cc(Cl)cc(C(F)(F)F)c3)c2N)ccc1C(=O)NCC(F)(F)C(F)F [I-A-Q2-287],I-A-Q2-287: log P (HCOOH): 5.33
25,Nc1c(-c2cccc(F)c2)c(C(F)(F)F)nn1-c1ccc(C(=O)NCc2ccccn2)cc1 [I-A-Q2-185],I-A-Q2-185: log P (HCOOH): 2.14

row,SMILES,log P (HCOOH)
1,Cc1cc(-n2nc(C(F)(F)F)c(-c3cc(Cl)cc(Cl)c3)c2N)ccc1C(=O)NC(C)c1ccccn1 (stereo not shown) [I-A-Q2-015],I-A-Q2-015: log P (HCOOH): 3.70
2,Nc1c(Cl)c(C(F)(F)F)nn1-c1ccc(C(=O)O)cc1 [XI-A-043],XI-A-043: log P (HCOOH): 2.34
3,Nc1c(-c2cc(Cl)cc(Cl)c2)c(C(F)(F)F)nn1-c1ccc(C(=O)NCc2ncccn2)cc1 [I-A-Q2-137],I-A-Q2-137: log P (HCOOH): 3.40
4,COc1ccnc(CNC(=O)c2ccc(-n3nc(C(F)(F)F)c(-c4cc(Cl)cc(Cl)c4)c3N)cc2C)c1 [I-A-Q2-052],I-A-Q2-052: log P (HCOOH): 2.34
5,Cc1cc(-n2nc(C(F)(F)F)c(-c3ccc(C#N)cc3)c2N)ccc1C(=O)NCC(F)(F)C(F)F [I-A-Q2-306],I-A-Q2-306: log P (HCOOH): 3.24
6,Cc1cc(-n2nc(C)c(-c3ccc(Cl)c(Cl)c3)c2N)ccc1C(=O)NCc1ccccn1 [I-A-Q2-365],I-A-Q2-365: log P (HCOOH): 2.27
7,C=CCNC(=O)c1ccc(-n2nc(C(F)(F)F)c(-c3cc(Cl)cc(Cl)c3)c2N)nc1 [I-A-Q2-104],I-A-Q2-104: log P (HCOOH): 4.46
8,CNC(=O)c1ccc(-n2nc(C(C)C)c(-c3ccc(Cl)cc3)c2N)cc1 [I-A-Q2-074],I-A-Q2-074: log P (HCOOH): 2.76
9,CC(NC(=O)c1ccc(-n2nc(C(F)(F)F)c(-c3cc(Cl)cc(Cl)c3)c2Br)cc1)C(F)(F)F (stereo not shown) [I-A-Q2-096],I-A-Q2-096: log P (HCOOH): 5.35
10,Cc1cc(-n2nc(C)c(-c3cccc(Cl)c3)c2N)ccc1C(=O)NCC(F)(F)C(F)F [I-A-Q2-331],I-A-Q2-331: log P (HCOOH): 2.85
11,Cc1cc(-n2nc(C(F)(F)F)c(-c3cc(Cl)cc(Cl)c3)c2N)ccc1C(=O)NCc1cc(F)ccc1F [I-A-Q2-046],I-A-Q2-046: log P (HCOOH): 4.51
12,"Cc1cc(-n2nc(C(F)(F)F)c(-c3cc(Cl)cc(Cl)c3)c2[S+](C)[O-])ccc1C(=O)NCC(F)(F)C(F)F (single isomer, unassigned) [I-A-Q2-284]",I-A-Q2-284: log P (HCOOH): 4.32
13,Cc1cc(-n2nc(C(F)(F)C(F)(F)F)c(-c3ccc(Cl)cc3)c2N)ccc1C(=O)NCC(F)(F)C(F)F [I-A-Q2-321],I-A-Q2-321: log P (HCOOH): 4.00
14,COc1cc(OC)nc(CNC(=O)c2ccc(-n3nc(C(F)(F)F)c(-c4cc(Cl)cc(Cl)c4)c3N)cc2C)n1 [I-A-Q2-255],I-A-Q2-255: log P (HCOOH): 4.40
15,CCOC(=O)c1ccc(-n2nc(C(F)(F)F)c(Cl)c2N)cc1 [XI-A-042],XI-A-042: log P (HCOOH): 3.52
16,Cc1cc(-n2nc(C(F)(F)F)c(-c3ccc(F)c(F)c3)c2N)ccc1C(=O)NCC(F)(F)C(F)F [I-A-Q2-312],I-A-Q2-312: log P (HCOOH): 3.42
17,Cc1cc(-n2nc(C)c(-c3ccc(Cl)cc3)c2N)ccc1C(=O)NCc1ccccn1 [I-A-Q2-366],I-A-Q2-366: log P (HCOOH): 1.91
18,Nc1c(Br)c(C(F)(F)F)nn1-c1ccc(C(=O)O)cc1 [XI-A-038],XI-A-038: log P (HCOOH): 2.38
19,Cc1cc(-n2nc(C(F)(F)F)c(-c3ccccc3Cl)c2N)ccc1C(=O)NCC1CC1 [I-A-Q2-413],I-A-Q2-413: log P (HCOOH): 3.37
20,CSc1cc(-n2nc(C(C)(C)C)c(-c3cc(Cl)cc(Cl)c3)c2N)ccc1C(=O)NCc1ccccn1 [I-A-Q2-408],I-A-Q2-408: log P (HCOOH): 3.68
21,CCC(NC(=O)c1ccc(-n2nc(C(F)(F)F)c(-c3cc(Cl)cc(Cl)c3)c2N)cc1C)C(F)(F)F (stereo not shown) [I-A-Q2-200],I-A-Q2-200: log P (HCOOH): 4.82
22,Cc1cc(-n2nc(C)c(-c3c(F)cccc3F)c2N)ccc1C(=O)NCc1ccccn1 [I-A-Q2-369],I-A-Q2-369: log P (HCOOH): 1.52
23,CSc1c(-c2cc(Cl)cc(Cl)c2)c(C(F)(F)F)nn1-c1ccc(C(=O)NCC(F)(F)C(F)F)c(C)c1 [I-A-Q2-282],I-A-Q2-282: log P (HCOOH): 5.25
24,Cc1cc(-n2nc(C(F)(F)Oc3ccccc3)c(-c3cc(Cl)cc(C(F)(F)F)c3)c2N)ccc1C(=O)NCC(F)(F)C(F)F [I-A-Q2-299],I-A-Q2-299: log P (HCOOH): 4.51
25,Cc1cc(-n2nc(C(F)(F)F)c(-c3cc(Cl)cc(Cl)c3)c2N)ccc1C(=O)NC(C)c1ccncc1 (stereo not shown) [I-A-Q2-234],I-A-Q2-234: log P (HCOOH): 2.38

# Same assay, conditions: HCOOH; Table 4, compounds of formula I-A-Q4
row,SMILES,log P (HCOOH)
1,Nc1c(-c2ccc(Cl)cc2)c(C(F)(F)C(F)(F)F)nn1-c1ccc(Cl)cn1 [I-A-Q4-058],I-A-Q4-058: log P (HCOOH): 5.44
2,COC(=O)c1ccc(-n2nc(C(F)(F)F)c(-c3cc(Cl)cc(Cl)c3)c2N)cc1SC [I-A-Q4-118],I-A-Q4-118: log P (HCOOH): 4.93
3,N#Cc1cc(-n2nc(C(F)(F)F)c(-c3cc(Cl)cc(Cl)c3)c2N)ccc1S(=O)(=O)NC1CCC1 [I-A-Q4-122],I-A-Q4-122: log P (HCOOH): 4.69
4,Cc1nn(-c2ccc(Cl)cn2)c(N)c1-c1cc(Cl)ccc1Cl [I-A-Q4-030],I-A-Q4-030 :log P (HCOOH): 4.57
5,Nc1c(-c2cc(F)c(F)c(F)c2)c(C(F)(F)F)nn1-c1ccc(Cl)cn1 [I-A-Q4-053],I-A-Q4-053: log P (HCOOH): 4.89
6,Nc1c(-c2ccc(Cl)c(F)c2)c(C(F)(F)F)nn1-c1ccc(C(=O)O)cc1 [I-A-Q4-093],I-A-Q4-093: log P (HCOOH): 3.39
7,Nc1c(-c2c(F)cc(F)cc2F)c(C(F)(F)F)nn1-c1ccc(Cl)cn1 [I-A-Q4-046],I-A-Q4-046: log P (HCOOH): 4.46

# Same assay, conditions: HPLC, reversed-phase C18, mobile phase with formic acid
row,SMILES,log P (HCOOH)
1,Cc1nn(-c2ccc(-n3cncn3)c(C#N)c2)c(N)c1-c1ccccc1 [I-A-Q1-066],I-A-Q1-066: log P (HCOOH): 2.14
2,Cc1nn(-c2ccc(-n3cncn3)c(C#N)c2)c(N)c1-c1ccc(Cl)cc1Cl [I-A-Q1-056],I-A-Q1-056: log P (HCOOH): 2.80
3,Cc1nn(-c2ccc(-n3cncn3)c(C#N)c2)c(N)c1-c1ccccc1Cl [I-A-Q1-060],I-A-Q1-060: log P (HCOOH): 2.27
4,CC(=O)NCc1ccc(-n2nc(C(F)(F)F)c(-c3cc(Cl)cc(Cl)c3)c2N)cc1Cl [I-A-Q3-023],I-A-Q3-023: log P (HCOOH): 3.70
